From patent US20160367497A1, “METHODS AND COMPOSITIONS FOR TREATING NEUROPATHIES” (Washington University, priority 2007, published 2016)

How the values were obtained:
[1] = tested on: DRG neuronal explant cultures; experiment: in vitro Wallerian degeneration assay, DRG explant neurite transection; format: cell-based, mouse
Protocol: To identify the mechanism of delayed axonal degeneration mediated by the Wlds protein, we employed an in-vitro Wallerian degeneration model. Primary DRG explant neurons were infected with lentivirus expressing the appropriate proteins, and axons were injured by either removal of the neuronal cell body (transection) or growth in vincristine (toxic).
Mouse DRG explants from E12.5 embryos were cultured in the presence of 1 nM nerve growth factor. Non-neuronal cells were removed from the cultures by adding 5-fluorouracil to the culture medium. Transection of neurites was performed at 10-20 DIV using an 18-gauge needle to remove the neuronal cell bodies. Incubation with β-nicotinamide adenine dinucleotide (Sigma) or Sirtinol (Calbiochem) was performed using conditions indicated in the text or figures.
Quantitative analysis of axonal degeneration was performed as previously described (Zhai, et al., Neuron 39:217-25, 2003). Briefly, the cultures were examined using phase contrast microscopy at the indicated times. Axons with a fragmented, non-refractile appearance were designated as “degenerated.” At each time point, at least 200 singly distinguishable axons were blindly scored from several randomly taken images of each culture. Each condition was tested in triplicate explants in each experiment. Results were obtained from 2-4 independent experiments for each condition. Statistical analysis was performed by Student's T test. For calculations of neurite-covered area, digitally captured images from quadruplicate samples of two independent experiments were analyzed using analysis 3.1 software (Soft Imaging System, Lakewood, Colo.).
Cell culture, in vitro axotomy, and quantification of axonal degeneration. Mouse DRG explants from E12.5 embryos were cultured in the DMEM containing 10% FCS and 1 nM nerve growth factor. Non-neuronal cells were removed from the cultures by adding 5-fluorouracil to the culture media. Transection of neurites was performed at 14-21 DIV using an 18-gauge needle to remove the neuronal cell bodies. Lentiviral expression vectors were generated. Lentiviral infection was performed 3-7 days prior to axonal transection for 24 hr. Quantitative analysis of neurite degeneration was performed.

[2] = tested on: Tfam, PGC-1α and MFN2 mRNA; experiment: mitochondrial biogenesis markers, quantitative RT-PCR in Neuro2a cells; format: cell-based; conditions: 10 μM, 3 d
Protocol: Three days later cells were shifted to serum-starvation medium containing DMSO (control) or resveratrol (10 μM). In addition, uninfected Neuro2a cells in serum-starvation medium were treated with resveratrol alone, the AMPK inhibitor Compound C (CC, Biomol International L.P. (Plymouth Meeting, Pa.)) (10 μM) alone or with resveratrol and CC together. […] Values were normalized to the 18S transcript. Data shown is representative of two independent experiments.
Protein and mRNA analysis. […] Quantitative RT-PCR analysis was performed using Sybr-Green methodology on a model 7700 instrument (Applied Biosystems) as previously described (Araki et al., 2004, Science 305:1010-1013).
We treated Neuro2a cells for 3d with either DMSO (control) or resveratrol (10 μM) in the presence or absence of the AMPK inhibitor Compound C (10 μM). We assessed mitochondrial biogenesis by monitoring mRNA levels of mitofusin 2 (MFN2), a mitochondrial protein and marker of mitochondrial mass and two key regulators of mitochondrial biogenesis, peroxisome proliferator activated receptor γ coactivator 1α (PGC1α) and mitochondrial transcription factor A (Tfam) (Kelly, et al., 2004, Genes Dev 18:357-368).

[3] = tested on: ACC; experiment: ACC phosphorylation in brain after intraperitoneal injection; format: in vivo, mice; conditions: single intraperitoneal injection 20 mg/kg; within 2 h
Protocol: (§1) FIG. 15A-E illustrates that resveratrol treatment causes AMPK phosphorylation in the brain. Two-month-old male mice were injected intraperitoneally with resveratrol (20 mg/kg body weight) or DMSO (vehicle) (n=3, for each treatment). Two hr after treatment, the animals were sacrificed and brain lysates were prepared. […] Total AMPK and ACC levels are shown as loading controls in B and D. (E) Densitometry was used to quantify the increased level of AMPK and ACC phosphorylation in the brain of resveratrol treated animals (* p<0.005).
(§2) To extend our in vitro results, we tested whether treating mice with resveratrol activates AMPK in the brain. We injected intraperitoneally 2-month-old male mice with either resveratrol (20 mg/kg body weight) or DMSO (vehicle) (n=3 for each group).

[4] = tested on: neuro2A cells; experiment: Neuro2a cell proliferation, Ki67 immunocytochemistry; format: cell-based; conditions: 0.2% fetal calf serum; AICAR 1 mM or resveratrol 10 μM; 24 h after plating; DMSO controls 50%
Protocol: Neuro2a cells are a widely used as in vitro model of neuronal differentiation. These cells cease to proliferate and begin to differentiate, as evidenced by neurite outgrowth, in response to serum starvation, retinoic acid, or growth factors like neurotrophins and GDNF family ligands. […] Neuro2a cells grown under serum starvation conditions (0.2% fetal calf serum) were treated with AICAR (1 mM) or resveratrol (10 μM).

[5] = tested on: AMPK; experiment: AMPK phosphorylation in brain after intraperitoneal injection; format: in vivo, mice; conditions: single intraperitoneal injection 20 mg/kg; within 2 h
Protocol: as §1, §2

[6] = tested on: acetyl Co-A carboxylase (ACC); experiment: ACC phosphorylation in Neuro2a cells (phospho-specific western blot); format: cell-based; conditions: resveratrol 10 μM or AICAR 1 mM; all time points to 72 hr
Protocol: FIG. 10A-D illustrates resveratrol activation of AMP kinase in Neuro2a cells. Neuro2a cells were switched to serum-starvation medium (medium containing 0.2% FCS) and treated with DMSO (vehicle control), resveratrol (10 μM) or 5-aminoimidazole-4-carboxamide-1-β-D-ribofuranoside (AICAR) (1 mM). […] Very low levels of phosphorylated AMPK and ACC were detected in DMSO treated control cells at all time points tested. (C) Densitometric analysis of changes in phosphorylated AMPK and (D) phosphorylated ACC under different conditions is shown.
Plasmids and viruses. […] Quantitative RT-PCR analysis was performed using Sybr-Green methodology on a model 7700 instrument (Applied Biosystems) as previously described (Araki et al., 2004, Science 305:1010-1013). […]
To explore the role of polyphenols, in particular, of resveratrol, we tested whether resveratrol altered the activity of AMPK in neuronal cells. […] To confirm that AMPK activation by resveratrol results in typical AMPK-mediated downstream responses, we monitored phosphorylation of ACC (acetyl Co-A carboxylase), a primary target of activated AMPK. […] To examine a potential mechanism of resveratrol-mediated AMPK activation, we measured cellular ATP levels as a decreased ATP:AMP ratio increases the phosphorylation of AMPK. […]

[7] = tested on: neuro2A cells; experiment: cellular ATP levels, luciferase-based assay in neuro2A cells; format: cell-based
Protocol: To explore the role of polyphenols, in particular, of resveratrol, we tested whether resveratrol altered the activity of AMPK in neuronal cells. Neuro2a neuroblastoma cells were treated with resveratrol (10 μM) and AMPK activation was examined using phospho-AMPK specific antibodies. […] To confirm that AMPK activation by resveratrol results in typical AMPK-mediated downstream responses, we monitored phosphorylation of ACC (acetyl Co-A carboxylase), a primary target of activated AMPK. […] To examine a potential mechanism of resveratrol-mediated AMPK activation, we measured cellular ATP levels as a decreased ATP:AMP ratio increases the phosphorylation of AMPK. ATP levels were monitored using a luciferase-based assay in neuro2A cells treated with resveratrol or Oligomycin, an inhibitor of mitochondrial oxidative phosphorylation and therefore ATP production. While the ATP concentration dropped from 5.874 μM in DMSO-treated cells (control) to 0.976 μM in Oligomycin treated cells within 2 hr, the ATP concentration in resveratrol-treated Neuro2a cells was not altered from control either at 2 hr (6.33 μM) or 24 hr (6.42 μM).

[8] = tested on: neuro2A cells; experiment: survival of Neuro2A cells in nutrient-deprived conditions; format: cell-based; conditions: regardless of the FCS concentration (10% or 0.2%)
Protocol: When Neuro2A cells are grown in culture in presence of 10% FCS, cells proliferate and ultimately die if cells are not passaged. If grown in the presence of 0.2% FCS, neuro2A cells differentiate and project neurites but ultimately die within one week.

With `NC(=O)c1cccnc1` [Nam, nicotinamide] the “neurite protection after transection” value ([1]; 1 mM applied for 24 hours before neurite transection) was “had no effect”.

For `CC(NC(=O)c1ccccc1/N=C/c1c(O)ccc2ccccc12)c1ccccc1` (stereo not shown) [Sirtinol], the “effect on NAD-dependent axonal protection (NDAP)” value ([1]; neurons cultured in 1 mM NAD, Sirtinol 100 μM, 3AB 20 mM or siRNA lentivirus, 12 to 72 hr after transection) was “effectively blocked NDAP”.

`Oc1ccc(C=Cc2cc(O)cc(O)c2)cc1` [resveratrol] was tested, and the “increase in MFN2 mRNA” value [2] was 2 fold, the “increase in PGC-1α mRNA” value [2] was 2 fold and the “increase in Tfam mRNA” value [2] was about 18 fold. The “increased ACC phosphorylation in the brain” value [3] was 2.1 fold, the “proliferating cells (Ki67)” value [4] was 11% and the “axonal degradation after axotomy” value ([1]; 10~100 μM, treated prior to axotomy) was “decrease in axonal degradation that was comparable to that obtained using NAD”. The “increased AMPK phosphorylation in the brain” value [5] was 2.5 fold, the ACC phosphorylation [6] was “robust phosphorylation of ACC” and the ATP concentration ([7]; 2 hr) was 6.33 µM. The ATP concentration ([7]; 24 hr) was 6.42 µM and the cell survival [8] was “resistant to death for a prolonged period of time”.
